From US20050282743A1, “Molecular interactions in cells” (Arbor Vita Corporation, priority 2001, published 2005)
Ends that are not written are not given here. Peptide text beside a SMILES is read from it. * marks the point of attachment. Biotin = O=C1N[C@H]2[C@H](CS[C@H]2CCCCC(=O)*)N1

Target: T1, PDZ protein (GST-PDZ fusion) (Homo sapiens, UniProt Q92796)
T1 construct: made in house; host or cells: E. coli (DH5alpha, BL21 or JM109)
T1 sequence (Q92796 1-817): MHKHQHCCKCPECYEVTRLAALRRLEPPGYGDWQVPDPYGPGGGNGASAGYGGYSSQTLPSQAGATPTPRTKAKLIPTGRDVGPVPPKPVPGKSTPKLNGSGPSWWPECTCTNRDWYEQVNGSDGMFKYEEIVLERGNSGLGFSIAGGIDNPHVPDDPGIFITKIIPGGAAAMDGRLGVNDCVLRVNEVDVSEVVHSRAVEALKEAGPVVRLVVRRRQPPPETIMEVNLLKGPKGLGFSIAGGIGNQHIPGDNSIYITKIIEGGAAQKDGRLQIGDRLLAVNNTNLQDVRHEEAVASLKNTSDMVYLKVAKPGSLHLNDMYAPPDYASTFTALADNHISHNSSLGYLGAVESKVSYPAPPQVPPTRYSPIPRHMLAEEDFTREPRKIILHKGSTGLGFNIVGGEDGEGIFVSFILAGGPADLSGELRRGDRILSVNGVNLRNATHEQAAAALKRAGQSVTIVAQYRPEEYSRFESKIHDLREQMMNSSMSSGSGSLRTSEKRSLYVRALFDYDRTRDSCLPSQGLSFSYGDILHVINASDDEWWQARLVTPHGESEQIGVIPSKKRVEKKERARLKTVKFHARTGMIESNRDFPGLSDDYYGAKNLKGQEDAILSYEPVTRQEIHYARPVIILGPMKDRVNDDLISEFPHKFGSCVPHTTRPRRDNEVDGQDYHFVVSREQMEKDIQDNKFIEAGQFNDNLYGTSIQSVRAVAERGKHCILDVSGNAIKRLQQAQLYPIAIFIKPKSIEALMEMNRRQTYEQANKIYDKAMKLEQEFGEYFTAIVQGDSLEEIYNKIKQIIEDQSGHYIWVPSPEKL
Assay: G' assay (10 uM PL peptide), results of TABLE 7 and TABLE 12
Format: binding
Details: PDZ NeDLG, PDZ Domain 1, 2
Summary of the method: (§1)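 Binding classes derive from A450 nm of bound biotin-tagged PL peptide. A score of 5 needs A450 above 4 in more than two repeats.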

| Molecule | Classification |
| --- | --- |
| CC(C)C[C@H](NC(=O)CNC(=O)[C@@H](NC(=O)[C@H](CO)NC(=O)[C@H](CC(N)=O)NC(=O)[C@H](Cc1ccccc1)NC(=O)CNC(=O)[C@H](C)NC(=O)[C@H](C)NC(=O)[C@H](Cc1ccccc1)NC(=O)[C@@H](NC(=O)CCCC[C@@H]1SC[C@@H]2NC(=O)N[C@@H]21)[C@@H](C)O)[C@@H](C)O)C(=O)N1CCC[C@H]1C(=O)N[C@@H](Cc1c[nH]cn1)C(=O)N[C@@H](CO)C(=O)N[C@H](C(=O)N[C@H](C(=O)N[C@@H](CCCNC(=N)N)C(=O)N[C@H](C(=O)O)C(C)C)[C@@H](C)O)[C@@H](C)O [Neuroligin] (Biotin-TFAAGFNSTGLPHSTTRV-OH; C-terminus assumed) | 1 (A450 nm 0-1) |

Same assay, conditions: PDZ NeDLG, PDZ Domain 3

| Molecule | Classification |
| --- | --- |
| CC(C)C[C@H](NC(=O)CNC(=O)[C@@H](NC(=O)[C@H](CO)NC(=O)[C@H](CC(N)=O)NC(=O)[C@H](Cc1ccccc1)NC(=O)CNC(=O)[C@H](C)NC(=O)[C@H](C)NC(=O)[C@H](Cc1ccccc1)NC(=O)[C@@H](NC(=O)CCCC[C@@H]1SC[C@@H]2NC(=O)N[C@@H]21)[C@@H](C)O)[C@@H](C)O)C(=O)N1CCC[C@H]1C(=O)N[C@@H](Cc1c[nH]cn1)C(=O)N[C@@H](CO)C(=O)N[C@H](C(=O)N[C@H](C(=O)N[C@@H](CCCNC(=N)N)C(=O)N[C@H](C(=O)O)C(C)C)[C@@H](C)O)[C@@H](C)O [Neuroligin] (Biotin-TFAAGFNSTGLPHSTTRV-OH; C-terminus assumed) | 1 (A450 nm 0-1) |

Target: T2, PDZ protein (GST-PDZ fusion) (Homo sapiens, UniProt Q96JH8)
T2 construct: made in house; host or cells: E. coli (DH5alpha, BL21 or JM109)
T2 sequence (Q96JH8 1-1075): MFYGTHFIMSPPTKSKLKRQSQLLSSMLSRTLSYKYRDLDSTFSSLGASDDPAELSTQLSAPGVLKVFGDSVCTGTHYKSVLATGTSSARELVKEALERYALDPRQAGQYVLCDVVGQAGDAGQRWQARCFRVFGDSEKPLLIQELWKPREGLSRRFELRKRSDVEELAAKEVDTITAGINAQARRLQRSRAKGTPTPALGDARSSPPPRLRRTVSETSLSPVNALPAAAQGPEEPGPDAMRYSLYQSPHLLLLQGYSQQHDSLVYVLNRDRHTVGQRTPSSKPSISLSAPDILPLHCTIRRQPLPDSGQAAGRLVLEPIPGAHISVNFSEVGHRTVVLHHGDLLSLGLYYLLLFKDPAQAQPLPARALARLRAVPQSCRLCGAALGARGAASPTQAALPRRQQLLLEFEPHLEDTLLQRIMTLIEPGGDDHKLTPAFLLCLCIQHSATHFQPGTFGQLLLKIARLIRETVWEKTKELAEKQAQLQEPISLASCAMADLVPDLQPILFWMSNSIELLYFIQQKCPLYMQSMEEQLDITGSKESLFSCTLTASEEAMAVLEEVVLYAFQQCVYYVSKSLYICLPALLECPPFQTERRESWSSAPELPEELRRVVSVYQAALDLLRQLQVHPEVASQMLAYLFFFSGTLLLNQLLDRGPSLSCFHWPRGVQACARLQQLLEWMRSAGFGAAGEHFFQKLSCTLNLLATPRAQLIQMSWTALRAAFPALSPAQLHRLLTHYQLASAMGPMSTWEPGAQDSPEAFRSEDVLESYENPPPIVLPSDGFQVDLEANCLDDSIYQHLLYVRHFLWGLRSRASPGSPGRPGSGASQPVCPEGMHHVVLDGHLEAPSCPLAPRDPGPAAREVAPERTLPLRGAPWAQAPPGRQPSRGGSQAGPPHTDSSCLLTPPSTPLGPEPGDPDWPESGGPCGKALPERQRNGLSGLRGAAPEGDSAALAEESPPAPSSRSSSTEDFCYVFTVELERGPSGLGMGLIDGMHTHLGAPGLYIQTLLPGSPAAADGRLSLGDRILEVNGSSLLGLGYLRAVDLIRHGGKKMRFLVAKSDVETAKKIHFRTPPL
Assay: as above
Format: binding
Details: PDZ FLJ 10324, PDZ Domain 1
Summary of the method: as §1

| Molecule | Classification |
| --- | --- |
| CC[C@H](C)[C@H](NC(=O)[C@H](Cc1ccc(O)cc1)NC(=O)[C@H](CC(C)C)NC(=O)[C@H](CCC(N)=O)NC(=O)[C@H](Cc1c[nH]cn1)NC(=O)[C@H](CO)NC(=O)[C@H](C)NC(=O)[C@H](CC(C)C)NC(=O)[C@@H](NC(=O)[C@H](CC(=O)O)NC(=O)[C@H](CCSC)NC(=O)[C@H](Cc1ccccc1)NC(=O)[C@@H]1CCCN1C(=O)[C@H](CCCNC(=N)N)NC(=O)[C@@H](NC(=O)[C@H](CC(C)C)NC(=O)[C@H](CC(N)=O)NC(=O)[C@H](CC(=O)O)NC(=O)[C@@H](NC(=O)[C@H](CO)NC(=O)CCCC[C@@H]1SC[C@@H]2NC(=O)N[C@@H]21)[C@@H](C)O)C(C)C)[C@@H](C)O)C(=O)O [presenilin-2] (Biotin-STDNLVRPFMDTLASHQLYI-OH; C-terminus assumed) | 5 (A450 nm of 4 more than 2× repeated) |
| CC(C)C[C@H](NC(=O)CNC(=O)[C@@H](NC(=O)[C@H](CO)NC(=O)[C@H](CC(N)=O)NC(=O)[C@H](Cc1ccccc1)NC(=O)CNC(=O)[C@H](C)NC(=O)[C@H](C)NC(=O)[C@H](Cc1ccccc1)NC(=O)[C@@H](NC(=O)CCCC[C@@H]1SC[C@@H]2NC(=O)N[C@@H]21)[C@@H](C)O)[C@@H](C)O)C(=O)N1CCC[C@H]1C(=O)N[C@@H](Cc1c[nH]cn1)C(=O)N[C@@H](CO)C(=O)N[C@H](C(=O)N[C@H](C(=O)N[C@@H](CCCNC(=N)N)C(=O)N[C@H](C(=O)O)C(C)C)[C@@H](C)O)[C@@H](C)O [Neuroligin] (Biotin-TFAAGFNSTGLPHSTTRV-OH; C-terminus assumed) | 1 (A450 nm 0-1) |
| CC(C)C[C@H](NC(=O)[C@H](CC(C)C)NC(=O)[C@@H](NC(=O)[C@H](CC(=O)O)NC(=O)CCCC[C@@H]1SC[C@@H]2NC(=O)N[C@@H]21)[C@@H](C)O)C(=O)N[C@@H](CC(C)C)C(=O)N[C@H](C(=O)N[C@@H](CCC(=O)O)C(=O)N[C@@H](CC(N)=O)C(=O)N[C@@H](CCC(=O)O)C(=O)NCC(=O)N[C@@H](CC(=O)O)C(=O)N[C@@H](CCCCN)C(=O)N[C@H](C(=O)N[C@@H](CCC(=O)O)C(=O)N[C@@H](CCC(=O)O)C(=O)N[C@@H](CCC(N)=O)C(=O)N[C@H](C(=O)N[C@@H](CO)C(=O)N[C@@H](Cc1ccc(O)cc1)C(=O)N[C@H](C(=O)O)C(C)C)C(C)C)[C@@H](C)O)[C@@H](C)O [5H2B_HUMAN] (Biotin-DTLLLTENEGDKTEEQVSYV-OH; C-terminus assumed) | 2 (A450 nm 1-2) |
| CC(C)C[C@H](NC(=O)[C@H](Cc1c[nH]c2ccccc12)NC(=O)[C@H](Cc1c[nH]cn1)NC(=O)[C@H](CCCNC(=N)N)NC(=O)[C@H](CC(C)C)NC(=O)[C@@H](NC(=O)[C@H](Cc1ccccc1)NC(=O)[C@H](CCC(N)=O)NC(=O)[C@H](CCCNC(=N)N)NC(=O)[C@@H](NC(=O)[C@H](CCC(=O)O)NC(=O)CNC(=O)[C@H](CCCNC(=N)N)NC(=O)[C@H](CC(=O)O)NC(=O)[C@@H](NC(=O)[C@H](CC(C)C)NC(=O)[C@H](CCC(=O)O)NC(=O)[C@H](CCCNC(=N)N)NC(=O)CCCC[C@@H]1SC[C@@H]2NC(=O)N[C@@H]21)C(C)C)C(C)C)[C@@H](C)O)C(=O)N[C@@H](CCCCN)C(=O)N[C@H](C(=O)O)C(C)C [Dopamine transporter (Na+-dependent)] (Biotin-RELVDRGEVRQFTLRHWLKV-OH; C-terminus assumed) | 5 (A450 nm of 4 more than 2× repeated) |
| CC[C@H](C)[C@H](NC(=O)[C@H](Cc1ccc(O)cc1)NC(=O)[C@@H](NC(=O)[C@@H]1CCCN1C(=O)[C@H](CCC(N)=O)NC(=O)[C@H](CCC(=O)O)NC(=O)[C@H](CCC(N)=O)NC(=O)[C@H](C)NC(=O)[C@@H](NC(=O)[C@H](CC(C)C)NC(=O)[C@H](CC(C)C)NC(=O)[C@H](CCCNC(=N)N)NC(=O)[C@H](Cc1ccc(O)cc1)NC(=O)[C@H](CCSC)NC(=O)[C@H](C)NC(=O)[C@H](C)NC(=O)[C@@H]1CCCN1C(=O)[C@H](CCSC)NC(=O)[C@@H](NC(=O)[C@H](CCCCN)NC(=O)CCCC[C@@H]1SC[C@@H]2NC(=O)N[C@@H]21)[C@@H](C)O)[C@@H](C)O)C(C)C)C(=O)O [MINT-1] (Biotin-KTMPAAMYRLLTAQEQPVYI-OH; C-terminus assumed) | 5 (A450 nm of 4 more than 2× repeated) |
| KTMPAAMFRLLTGQETPLYI (Biotin-KTMPAAMFRLLTGQETPLYI) [MINT-2] | 4 (A450 nm 3-4) |
| CC[C@H](C)[C@H](NC(=O)[C@H](CCC(N)=O)NC(=O)[C@@H](NC(=O)[C@H](Cc1c[nH]cn1)NC(=O)[C@H](CCC(N)=O)NC(=O)[C@H](CC(=O)O)NC(=O)[C@H](CCC(=O)O)NC(=O)[C@H](CC(=O)O)NC(=O)[C@H](Cc1ccccc1)NC(=O)[C@@H]1CCCN1C(=O)[C@H](CCC(=O)O)NC(=O)[C@H](CC(N)=O)NC(=O)[C@H](CCC(=O)O)NC(=O)[C@@H]1CCCN1C(=O)[C@H](CC(=O)O)NC(=O)[C@H](CO)NC(=O)[C@H](CC(=O)O)NC(=O)CCCC[C@@H]1SC[C@@H]2NC(=O)N[C@@H]21)[C@@H](C)O)C(=O)N[C@H](C(=O)N[C@@H](CCCCN)C(=O)N[C@H](C(=O)O)C(C)C)[C@@H](C)O [PTEN] | 1 (A450 nm 0-1) |
| GPVPGEPAKPKTSAHHATFV (Biotin-GPVPGEPAKPKTSAHHATFV) | 1 (A450 nm 0-1) |
| CC[C@H](C)[C@H](NC(=O)[C@H](C)NC(=O)[C@H](CC(C)C)NC(=O)[C@H](Cc1c[nH]c2ccccc12)NC(=O)[C@H](Cc1c[nH]cn1)NC(=O)[C@H](CCC(N)=O)NC(=O)[C@H](CC(C)C)NC(=O)[C@H](CCC(N)=O)NC(=O)[C@H](Cc1ccccc1)NC(=O)[C@H](CCC(N)=O)NC(=O)[C@H](CCCNC(=N)N)NC(=O)[C@@H](NC(=O)[C@H](CC(=O)O)NC(=O)[C@H](CCCNC(=N)N)NC(=O)[C@H](CCC(N)=O)NC(=O)[C@H](C)NC(=O)[C@@H](NC(=O)[C@H](CC(C)C)NC(=O)[C@H](Cc1c[nH]cn1)NC(=O)[C@H](Cc1c[nH]cn1)NC(=O)CCCC[C@@H]1SC[C@@H]2NC(=O)N[C@@H]21)C(C)C)[C@@H](C)CC)C(=O)O [noradrenaline transporter] (Biotin-HHLVAQRDIRQFQLQHWLAI-OH; C-terminus assumed) | 3 (A450 nm 2-3) |
| CC[C@H](C)[C@H](NC(=O)[C@H](CCC(=O)O)NC(=O)[C@H](CC(N)=O)NC(=O)[C@H](CCCNC(=N)N)NC(=O)[C@H](Cc1ccccc1)NC(=O)[C@H](CC(N)=O)NC(=O)[C@H](CO)NC(=O)[C@H](CC(N)=O)NC(=O)[C@H](CCC(=O)O)NC(=O)[C@H](CO)NC(=O)[C@H](CC(=O)O)NC(=O)[C@H](CO)NC(=O)[C@@H](NC(=O)[C@@H](NC(=O)[C@H](CC(=O)O)NC(=O)[C@H](CCCCN)NC(=O)CCCC[C@@H]1SC[C@@H]2NC(=O)N[C@@H]21)[C@@H](C)CC)[C@@H](C)O)C(=O)N[C@@H](CCC(N)=O)C(=O)N[C@@H](CO)C(=O)N[C@@H](CC(C)C)C(=O)N[C@H](C(=O)O)C(C)C [CD95] (Biotin-KDITSDSENSNFRNEIQSLV-OH; C-terminus assumed) | 1 (A450 nm 0-1) |
